Test: Tissue distribution in the rat (CE method)
Assay type: in vivo
Protocol: The toxicokinetics and tissue distribution of SEQ ID NO:1 (and related oligonucleotide metabolites obtained from exonuclease-mediated chain shortening) were determined in rats and monkeys. In addition to investigating the pharmacokinetics and tissue distribution of SEQ ID NO:1, the purpose of the studies was to correlate adverse effects in the animal studies to the concentrations of SEQ ID NO:1 (and metabolites) in tissue and blood. A capillary electrophoresis (CE) method was used to measure the concentrations of SEQ ID NO:1 (and metabolites) in plasma and tissues.
The concentrations of SEQ ID NO:1 (and related n+1, n−1 to n−15 oligonucleotide metabolites) in the following rat and monkey tissues were measured by a validated CE method (Southwest Bio-Labs, Inc.): kidney, liver, spleen, heart, lung, bone marrow (rat), lymph nodes (monkey) and brain tissues. The tissue samples were collected from the designated animals as described in the 21-day toxicity studies: rats, administered bolus intravenous injections of SEQ ID NO:1 every other day at 2, 10, or 50 mg/kg; and monkeys administered SEQ ID NO:1 by continuous intravenous infusion at 2, 10, or 50 mg/kg/day.

[1] = 2 mg/kg bolus i.v. every other day, 4 hrs post first dose
[2] = 2 mg/kg bolus i.v. every other day, 4 hrs post last dose
[3] = 2 mg/kg bolus i.v. every other day, 48 hrs post first dose
[4] = 10 mg/kg bolus i.v. every other day, 4 hrs post first dose
[5] = 10 mg/kg bolus i.v. every other day, 4 hrs post last dose

5′-GGCTAAATCGCTCCACCAAG-3′ (all phosphorothioate, sugars by position and methylation of C not given here) [SEQ ID NO: 1, fully phosphorothioated antisense oligonucleotide that hybridizes to the coding region of R2 mRNA]
Rank order of tissue concentrations: kidney>liver>bone marrow>spleen>heart>lung | Mean Concentration SEQ ID NO: 1, Bone Marrow [1]: BDL (below detectable limits (1 μg/g rat; 0.2 μg/g monkey)) | Mean Concentration SEQ ID NO: 1, Brain [1]: BDL (below detectable limits (1 μg/g rat; 0.2 μg/g monkey)) | Mean Concentration SEQ ID NO: 1, Heart [1]: 0.8 µg/g | Mean Concentration SEQ ID NO: 1, Kidney [1]: 6.7 µg/g | Mean Concentration SEQ ID NO: 1, Liver [1]: 6.9 µg/g | Mean Concentration SEQ ID NO: 1, Lung [1]: BDL (below detectable limits (1 μg/g rat; 0.2 μg/g monkey)) | Mean Concentration SEQ ID NO: 1, Spleen [1]: 1.0 µg/g | Mean Concentration total metabolites (n + 1 through n − 13), Bone Marrow [1]: BDL (below detectable limits (1 μg/g rat; 0.2 μg/g monkey)) | Mean Concentration total metabolites (n + 1 through n − 13), Brain [1]: BDL (below detectable limits (1 μg/g rat; 0.2 μg/g monkey)) | Mean Concentration total metabolites (n + 1 through n − 13), Heart [1]: 0.3 µg/g | Mean Concentration total metabolites (n + 1 through n − 13), Kidney [1]: 20.8 µg/g | Mean Concentration total metabolites (n + 1 through n − 13), Liver [1]: 16.9 µg/g | Mean Concentration total metabolites (n + 1 through n − 13), Lung [1]: BDL (below detectable limits (1 μg/g rat; 0.2 μg/g monkey)) | Mean Concentration total metabolites (n + 1 through n − 13), Spleen [1]: 1.2 µg/g | Mean Concentration SEQ ID NO: 1, Bone Marrow [2]: 1.8 µg/g | Mean Concentration SEQ ID NO: 1, Brain [2]: BDL (below detectable limits (1 μg/g rat; 0.2 μg/g monkey)) | Mean Concentration SEQ ID NO: 1, Heart [2]: BDL (below detectable limits (1 μg/g rat; 0.2 μg/g monkey)) | Mean Concentration SEQ ID NO: 1, Kidney [2]: 28.0 µg/g | Mean Concentration SEQ ID NO: 1, Liver [2]: 13.8 µg/g | Mean Concentration SEQ ID NO: 1, Lung [2]: 0.9 µg/g | Mean Concentration SEQ ID NO: 1, Spleen [2]: 1.8 µg/g | Mean Concentration total metabolites (n + 1 through n − 13), Bone Marrow [2]: 3.8 µg/g | Mean Concentration total metabolites (n + 1 through n − 13), Brain [2]: BDL (below detectable limits (1 μg/g rat; 0.2 μg/g monkey)) | Mean Concentration total metabolites (n + 1 through n − 13), Heart [2]: BDL (below detectable limits (1 μg/g rat; 0.2 μg/g monkey)) | Mean Concentration total metabolites (n + 1 through n − 13), Kidney [2]: 122.8 µg/g | Mean Concentration total metabolites (n + 1 through n − 13), Liver [2]: 42.1 µg/g | Mean Concentration total metabolites (n + 1 through n − 13), Lung [2]: 0.2 µg/g | Mean Concentration total metabolites (n + 1 through n − 13), Spleen [2]: 6.5 µg/g | Mean Concentration SEQ ID NO: 1, Bone Marrow [3]: BDL (below detectable limits (1 μg/g rat; 0.2 μg/g monkey)) | Mean Concentration SEQ ID NO: 1, Brain [3]: BDL (below detectable limits (1 μg/g rat; 0.2 μg/g monkey)) | Mean Concentration SEQ ID NO: 1, Heart [3]: BDL (below detectable limits (1 μg/g rat; 0.2 μg/g monkey)) | Mean Concentration SEQ ID NO: 1, Kidney [3]: 1.0 µg/g | Mean Concentration SEQ ID NO: 1, Liver [3]: BDL (below detectable limits (1 μg/g rat; 0.2 μg/g monkey)) | Mean Concentration SEQ ID NO: 1, Lung [3]: BDL (below detectable limits (1 μg/g rat; 0.2 μg/g monkey)) | Mean Concentration SEQ ID NO: 1, Spleen [3]: BDL (below detectable limits (1 μg/g rat; 0.2 μg/g monkey)) | Mean Concentration total metabolites (n + 1 through n − 13), Bone Marrow [3]: BDL (below detectable limits (1 μg/g rat; 0.2 μg/g monkey)) | Mean Concentration total metabolites (n + 1 through n − 13), Brain [3]: BDL (below detectable limits (1 μg/g rat; 0.2 μg/g monkey)) | Mean Concentration total metabolites (n + 1 through n − 13), Heart [3]: BDL (below detectable limits (1 μg/g rat; 0.2 μg/g monkey)) | Mean Concentration total metabolites (n + 1 through n − 13), Kidney [3]: 3.6 µg/g | Mean Concentration total metabolites (n + 1 through n − 13), Liver [3]: BDL (below detectable limits (1 μg/g rat; 0.2 μg/g monkey)) | Mean Concentration total metabolites (n + 1 through n − 13), Lung [3]: BDL (below detectable limits (1 μg/g rat; 0.2 μg/g monkey)) | Mean Concentration total metabolites (n + 1 through n − 13), Spleen [3]: BDL (below detectable limits (1 μg/g rat; 0.2 μg/g monkey)) | Mean Concentration SEQ ID NO: 1, Bone Marrow [4]: 2.7 µg/g | Mean Concentration SEQ ID NO: 1, Brain [4]: BDL (below detectable limits (1 μg/g rat; 0.2 μg/g monkey)) | Mean Concentration SEQ ID NO: 1, Heart [4]: 1.5 µg/g | Mean Concentration SEQ ID NO: 1, Kidney [4]: 31.1 µg/g | Mean Concentration SEQ ID NO: 1, Liver [4]: 19.7 µg/g | Mean Concentration SEQ ID NO: 1, Lung [4]: 1.6 µg/g | Mean Concentration SEQ ID NO: 1, Spleen [4]: 2.6 µg/g | Mean Concentration total metabolites (n + 1 through n − 13), Bone Marrow [4]: 3.5 µg/g | Mean Concentration total metabolites (n + 1 through n − 13), Brain [4]: BDL (below detectable limits (1 μg/g rat; 0.2 μg/g monkey)) | Mean Concentration total metabolites (n + 1 through n − 13), Heart [4]: 4.2 µg/g | Mean Concentration total metabolites (n + 1 through n − 13), Kidney [4]: 88.1 µg/g | Mean Concentration total metabolites (n + 1 through n − 13), Liver [4]: 47.9 µg/g | Mean Concentration total metabolites (n + 1 through n − 13), Lung [4]: 2.3 µg/g | Mean Concentration total metabolites (n + 1 through n − 13), Spleen [4]: 7.8 µg/g | Mean Concentration SEQ ID NO: 1, Bone Marrow [5]: 3.6 µg/g | Mean Concentration SEQ ID NO: 1, Brain [5]: BDL (below detectable limits (1 μg/g rat; 0.2 μg/g monkey)) | Mean Concentration SEQ ID NO: 1, Heart [5]: BDL (below detectable limits (1 μg/g rat; 0.2 μg/g monkey)) | Mean Concentration SEQ ID NO: 1, Kidney [5]: 129.5 µg/g | Mean Concentration SEQ ID NO: 1, Liver [5]: 38.1 µg/g | Mean Concentration SEQ ID NO: 1, Lung [5]: 2.1 µg/g | Mean Concentration SEQ ID NO: 1, Spleen [5]: 3.2 µg/g

Reference: patent US7968526B2, “Antisense oligonucleotides directed to ribonucleotide reductase R2 and uses thereof in the treatment of cancer” (Lorus Therapeutics Inc., priority 2003, dated 2011)
